In patent publication US20260042764A1, “COMPOSITIONS AND METHODS FOR INHIBITION OF KRAS” (TheRas, Inc., priority 2022, published 2026):
pIC50: −log10 of the molar value.

How the values were obtained:
SW620 cells (KRAS G12V) = assay: Cell-based pERK HTRF assay in SW620 cell (Biological Example 4); settings: Homo sapiens, SW-620, SW620 (KRAS G12V) cells
How it was run: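 SW620 (KRAS G12V) cells seeded at 3×10^4/well in RPMI, 10% FBS, then treated next day for 4 h with a 9-point half-log series from 1 μM top (0.25% DMSO). Lysates analyzed for pERK by HTRF (Eu cryptate/d2 antibodies, 4–24 h at room temperature), excitation 320 nm, emission 615 nm.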

[1] = biological target: T1, Avi-KRAS G12C (2-169) GTP/RAF1 RBD-3xFLAG (51-131) (Homo sapiens, UniProt P01116, G12C); assay: Raf1-KRAS G12C-GTP disruption HTRF assay (Biological Example 3); type: binding; settings: KRAS G12C, GTP-loaded
T1 construct: Avi-KRAS G12C (2-169)
How it was run: (§1)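 Compounds were titrated 10-point, 3-fold from 30 μM against preformed KRAS-GTP:RAF1 RBD (51-131) complexes at 50 nM, using KRAS 2-169 as WT, G12C, G12D or G12V. After 1 h at room temperature in Tris pH 7.5 buffer with MgCl2 and 10% DMSO, time-resolved fluorescence was read. Results are percent activity versus DMSO.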

[2] = biological target: T2, Avi-KRAS G12D (2-169) GTP/RAF1 RBD-3xFLAG (51-131) (Homo sapiens, UniProt P01116, G12D); assay: Raf1-KRAS G12D-GTP disruption HTRF assay (Biological Example 3); type: binding; settings: KRAS G12D, GTP-loaded
T2 construct: Avi-KRAS G12D (2-169)
How it was run: as §1

GP2d cells (KRAS G12D) = assay: Cell-based pERK HTRF assay in GP2d cell (Biological Example 2); settings: GP2d, GP2d (KRAS G12D) cells
How it was run: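 Cells grown in DMEM with 10% FBS were exposed to compound for 60 min at 0.25% DMSO, using a 9-point half-log series starting at 1 μM or 100 nM. Lysates were then mixed with d2 and Eu cryptate antibodies for 4–24 h at room temperature, and pERK was read by HTRF.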

[3] = biological target: T3, Avi-KRAS G12V (2-169) GTP/RAF1 RBD-3xFLAG (51-131) (Homo sapiens, UniProt P01116, G12V); assay: Raf1-KRAS G12V-GTP disruption HTRF assay (Biological Example 3); type: binding; settings: KRAS G12V, GTP-loaded
T3 construct: Avi-KRAS G12V (2-169)
How it was run: as §1

[4] = biological target: T4, Avi-KRAS WT (2-169) GTP/RAF1 RBD-3xFLAG (51-131) (Homo sapiens, UniProt P01116); assay: Raf1-KRAS WT-GTP disruption HTRF assay (Biological Example 3); type: binding; settings: KRAS WT, GTP-loaded
T4 construct: Avi-KRAS WT (2-169)
How it was run: as §1

T3 sequence (P01116 2-169 isoform P01116-2 G12V): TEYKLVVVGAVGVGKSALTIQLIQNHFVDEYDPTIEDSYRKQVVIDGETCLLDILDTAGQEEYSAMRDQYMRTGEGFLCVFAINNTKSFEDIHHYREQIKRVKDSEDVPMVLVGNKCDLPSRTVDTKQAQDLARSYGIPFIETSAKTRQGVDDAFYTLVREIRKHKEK
T2 sequence (P01116 2-169 isoform P01116-2 G12D): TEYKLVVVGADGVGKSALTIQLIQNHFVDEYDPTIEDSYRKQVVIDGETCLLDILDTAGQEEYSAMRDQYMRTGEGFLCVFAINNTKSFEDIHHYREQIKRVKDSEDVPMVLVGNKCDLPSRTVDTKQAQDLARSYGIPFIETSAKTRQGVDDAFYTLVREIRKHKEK
T1 sequence (P01116 2-169 isoform P01116-2 G12C): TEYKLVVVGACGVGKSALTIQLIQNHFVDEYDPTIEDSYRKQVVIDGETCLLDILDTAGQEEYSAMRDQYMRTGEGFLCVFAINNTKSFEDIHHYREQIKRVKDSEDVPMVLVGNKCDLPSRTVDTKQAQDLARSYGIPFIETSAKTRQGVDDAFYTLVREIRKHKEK
T4 sequence (P01116 2-169 isoform P01116-2): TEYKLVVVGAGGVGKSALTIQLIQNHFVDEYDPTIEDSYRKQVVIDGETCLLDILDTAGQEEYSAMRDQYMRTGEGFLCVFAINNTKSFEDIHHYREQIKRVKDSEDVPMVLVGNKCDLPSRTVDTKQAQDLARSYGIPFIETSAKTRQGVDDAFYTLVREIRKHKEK

| Structure (SMILES) | pIC50 (SW620 cells (KRAS G12V)) | pIC50 [1] | pIC50 [2] | pIC50 (GP2d cells (KRAS G12D)) | pIC50 [3] | pIC50 [4] |
| --- | --- | --- | --- | --- | --- | --- |
| CCN(c1nc(OC[C@@]23CCCN2C[C@H](F)C3)nc2c(F)c(-c3ccc(F)c4sc(N)c(C#N)c34)c(C(F)(F)F)cc12)[C@@H]1CN2C(=O)N(C)C[C@]2(C)C1 (atropisomer, axis not shown) [Compound 858] | > 7.00 | 6.00 to 7.00 | 6.00 to 7.00 | > 7.00 | 6.00 to 7.00 | 6.00 to 7.00 |
| [2H][C@]1(N(CC)c2nc(OC[C@@]34CCCN3C[C@H](F)C4)nc3c(F)c(-c4ccc(F)c5sc(N)c(C#N)c45)c(C(F)(F)F)cc23)CCN(C(=O)N(C)C)C1 (atropisomer, axis not shown) [Compound 859] | > 7.00 | 6.00 to 7.00 | 6.00 to 7.00 | > 7.00 | 6.00 to 7.00 | 6.00 to 7.00 |
| [2H][C@]1(N(CC)c2nc(OC[C@@]34CCCN3C[C@H](F)C4)nc3c(F)c(-c4ccc(F)c5sc(N)c(C#N)c45)c(C(F)(F)F)cc23)CCN(C(=O)C(C)C)C1 (atropisomer, axis not shown) [Compound 860] | > 7.00 | 6.00 to 7.00 | 6.00 to 7.00 | > 7.00 | 6.00 to 7.00 | 6.00 to 7.00 |
| CCN(Cc1cccnc1)c1nc(OC[C@@]23CCCN2C[C@H](F)C3)nc2c(F)c(-c3ccc(F)c4sc(N)c(C#N)c34)c(C(F)(F)F)cc12 (atropisomer, axis not shown) [Compound 862] | > 7.00 | 5.00 to 6.00 | 5.00 to 6.00 | > 7.00 | 5.00 to 6.00 | 5.00 to 6.00 |
| CCN(c1nc(OC[C@@]23CCCN2C[C@H](F)C3)nc2c(F)c(-c3ccc(F)c4sc(N)c(C#N)c34)c(C(F)(F)F)cc12)[C@H]1C[C@H]2[C@H](C)N(C)C(=O)N2C1 (atropisomer, axis not shown) [Compound 863] | > 7.00 | ≥ 7.00 | ≥ 7.00 | > 7.00 | ≥ 7.00 | 6.00 to 7.00 |
| CCN(c1nc(OC[C@@]23CCCN2C[C@H](F)C3)nc2c(F)c(-c3ccc(F)c4sc(N)c(C#N)c34)c(C(F)(F)F)cc12)[C@H]1C[C@H]2CC(C)(C)C(=O)N2C1 (atropisomer, axis not shown) [Compound 864] | > 7.00 | 6.00 to 7.00 | ≥ 7.00 | > 7.00 | 6.00 to 7.00 | 6.00 to 7.00 |
| CN(Cc1ccccn1)c1nc(OC[C@@]23CCCN2C[C@H](F)C3)nc2c(F)c(-c3ccc(F)c4sc(N)c(C#N)c34)c(C(F)(F)F)cc12 (atropisomer, axis not shown) [Compound 865] | > 7.00 | 5.00 to 6.00 | 6.00 to 7.00 | > 7.00 | 5.00 to 6.00 | 5.00 to 6.00 |
| CCN(c1nc(OC[C@@]23CCCN2C[C@H](F)C3)nc2c(F)c(-c3ccc(F)c4sc(N)c(C#N)c34)c(C(F)(F)F)cc12)[C@H]1C[C@H]2C[C@@H](C)C(=O)N2C1 (atropisomer, axis not shown) [Compound 866] | > 7.00 | ≥ 7.00 | ≥ 7.00 | > 7.00 | ≥ 7.00 | ≥ 7.00 |
| CN(Cc1ccncc1)c1nc(OC[C@@]23CCCN2C[C@H](F)C3)nc2c(F)c(-c3ccc(F)c4sc(N)c(C#N)c34)c(C(F)(F)F)cc12 (atropisomer, axis not shown) [Compound 867] | > 7.00 | 5.00 to 6.00 | 5.00 to 6.00 | > 7.00 | 5.00 to 6.00 | 5.00 to 6.00 |
| CCN(c1nc(OC[C@@]23CCCN2C[C@H](F)C3)nc2c(F)c(-c3ccc(F)c4sc(N)c(C#N)c34)c(C(F)(F)F)cc12)[C@H]1CCN(C(=O)[C@H]2CCO2)[C@H]1C (atropisomer, axis not shown) [Compound 868] | 6.00 to 7.00 | 5.00 to 6.00 | 6.00 to 7.00 | > 7.00 | 5.00 to 6.00 | 5.00 to 6.00 |
| CCN(c1nc(OC[C@@]23CCCN2C[C@H](F)C3)nc2c(F)c(-c3ccc(F)c4sc(N)c(C#N)c34)c(C(F)(F)F)cc12)[C@H]1C[C@H](COC)N(C(=O)[C@@H]2C[C@@H]2F)C1 (atropisomer, axis not shown) [Compound 869] | > 7.00 | 6.00 to 7.00 | 6.00 to 7.00 | > 7.00 | 6.00 to 7.00 | 6.00 to 7.00 |
| CN(Cc1cnccn1)c1nc(OC[C@@]23CCCN2C[C@H](F)C3)nc2c(F)c(-c3ccc(F)c4sc(N)c(C#N)c34)c(C(F)(F)F)cc12 (atropisomer, axis not shown) [Compound 872] | > 7.00 | 6.00 to 7.00 | 6.00 to 7.00 | > 7.00 | 6.00 to 7.00 | 5.00 to 6.00 |
| CCN(c1nc(OC[C@@]23CCCN2C[C@H](F)C3)nc2c(F)c(-c3ccc(F)c4sc(N)c(C#N)c34)c(C(F)(F)F)cc12)[C@H]1CC[C@@](C)(C(=O)N(C)C)C1 (atropisomer, axis not shown) [Compound 873] | > 7.00 | 5.00 to 6.00 | 5.00 to 6.00 | > 7.00 | 5.00 to 6.00 | 6.00 to 7.00 |
| CN(Cc1cccnn1)c1nc(OC[C@@]23CCCN2C[C@H](F)C3)nc2c(F)c(-c3ccc(F)c4sc(N)c(C#N)c34)c(C(F)(F)F)cc12 (atropisomer, axis not shown) [Compound 876] | > 7.00 | 6.00 to 7.00 | 6.00 to 7.00 | > 7.00 | 6.00 to 7.00 | 5.00 to 6.00 |
| CCN(c1nc(OC[C@@]23CCCN2C[C@H](F)C3)nc2c(F)c(-c3ccc(F)c4sc(N)c(C#N)c34)c(C(F)(F)F)cc12)[C@H]1C[C@@H]2COCC(=O)N2C1 (atropisomer, axis not shown) [Compound 878] | > 7.00 | 6.00 to 7.00 | 6.00 to 7.00 | > 7.00 | 6.00 to 7.00 | 6.00 to 7.00 |
| CN(Cc1cccc(=O)n1C)c1nc(OC[C@@]23CCCN2C[C@H](F)C3)nc2c(F)c(-c3ccc(F)c4sc(N)c(C#N)c34)c(C(F)(F)F)cc12 (atropisomer, axis not shown) [Compound 879] | > 7.00 | < 5.00 | 5.00 to 6.00 | > 7.00 | < 5.00 | < 5.00 |
| CCN(c1nc(OC[C@@]23CCCN2C[C@H](F)C3)nc2c(F)c(-c3ccc(F)c4sc(N)c(C#N)c34)c(C(F)(F)F)cc12)[C@H]1CC(=O)N2CCC[C@H]12 (atropisomer, axis not shown) [Compound 880] | > 7.00 | ≥ 7.00 | 6.00 to 7.00 | > 7.00 | ≥ 7.00 | 6.00 to 7.00 |
| CCN(c1nc(OC[C@@]23CCCN2C[C@H](F)C3)nc2c(F)c(-c3ccc(F)c4sc(N)c(C#N)c34)c(C(F)(F)F)cc12)[C@H]1C[C@H]2COCC(=O)N2C1 (atropisomer, axis not shown) [Compound 882] | > 7.00 | ≥ 7.00 | ≥ 7.00 | > 7.00 | ≥ 7.00 | 6.00 to 7.00 |
| CN(Cc1ncco1)c1nc(OC[C@@]23CCCN2C[C@H](F)C3)nc2c(F)c(-c3ccc(F)c4sc(N)c(C#N)c34)c(C(F)(F)F)cc12 (atropisomer, axis not shown) [Compound 885] | > 7.00 | 6.00 to 7.00 | 6.00 to 7.00 | > 7.00 | 6.00 to 7.00 | 5.00 to 6.00 |
| CCN(c1nc(OC[C@@]23CCCN2C[C@H](F)C3)nc2c(F)c(-c3ccc(F)c4sc(N)c(C#N)c34)c(C(F)(F)F)cc12)[C@H]1CCN(C(=O)[C@@H]2CC2(F)F)[C@H]1C (atropisomer, axis not shown) [Compound 887] | 6.00 to 7.00 | 5.00 to 6.00 | 5.00 to 6.00 | > 7.00 | 5.00 to 6.00 | 5.00 to 6.00 |
| CCN(c1nc(OC[C@@]23CCCN2C[C@H](F)C3)nc2c(F)c(-c3ccc(F)c4sc(N)c(C#N)c34)c(C(F)(F)F)cc12)[C@H]1CCN(C(=O)[C@@H]2C[C@@H]2F)[C@@H]1C (atropisomer, axis not shown) [Compound 889] | > 7.00 | 6.00 to 7.00 | 6.00 to 7.00 | > 7.00 | 6.00 to 7.00 | 6.00 to 7.00 |
| CN(Cc1ccccc1)c1nc(OC[C@@]23CCCN2C[C@H](F)C3)nc2c(F)c(-c3ccc(F)c4sc(N)c(C#N)c34)c(C(F)(F)F)cc12 (atropisomer, axis not shown) [Compound 890] | 6.00 to 7.00 | < 5.00 | < 5.00 | 6.00 to 7.00 | < 5.00 | < 5.00 |
